Legend:
[1] = Local tolerance and dermal toxicity test, Draize scoring; details: after the 7th DNCB dose (third week), 0.05% in 95% ethanol
[2] = Encapsulation efficiency and drug loading by HPLC after ultrafiltration; format: physicochemical; details: Z-Endoxifen in transethosomes
Procedure: After cooling the transethosomes to room temperature, the remaining volume was 10 ml. The total drug concentration was determined by HPLC using 20 μL demulsified samples. 200 μL samples were collected into a 30 kDa ultrafiltration tube, added 1 mL of 25% ethanol, ultrafiltrated at 5000 rpm, and the drug concentration of subnatant was determined by HPLC.
Encapsulation efficiency was evaluated by HPLC. HPLC was performed using a WondaSil® C-18-WR column (4.6×150 mm, 5 μm pore size). The mobile phase included an A phase and a B phase at a ratio (A:B) of 30:70. The A phase contained 10 mM ammonium formate in water: 10 mM ammonium formate in methanol. The B phase contained 10 mM ammonium formate in methanol at a ratio of 40:60. Samples were prepared as follows. The solvent was prepared by mixing 10 mM ammonium formate in a solution containing water and acetonitrile at a ratio of 1:1 (v/v). Z-Endoxifen was diluted in the solvent at a concentration gradient of 5, 10, 25, 50, and 80 μg/mL. Samples were injected into the column at a volume of 20 μL and were passed through the column at a flow rate of 0.8 mL/min at a temperate of 30° C. The detection wavelength was 243 nm.
The following equations were used in Table 1: […]

| SMILES | Erythema score (Draize) ([1]; 3 of 10 animals) | Erythema score (Draize) ([1]; remaining 7 animals) | Drug loading (%) [2] [%] | Encapsulation efficiency (%) [2] [%] |
| --- | --- | --- | --- | --- |
| O=[N+]([O-])c1ccc(Cl)c([N+](=O)[O-])c1 [DNCB, 1-chloro-2,4-dinitrobenzene] | 2 | 1 | – | – |
| CC/C(=C(\c1ccc(O)cc1)c1ccc(OCCNC)cc1)c1ccccc1 [Z-Endoxifen, (Z)-endoxifen] | – | – | 4.77 | 92.34 |

— US20250319045A1, “TRANSETHOSOME-ENCAPSULATED AGENTS AND METHODS OF USE THEREOF” (Northwestern University, priority 2024, published 2025)
